Source: patent publication US20250186456A1, “PYRIMIDINE-FUSED CYCLIC COMPOUND AND PREPARATION METHOD AND USE THEREOF” (Genfleet Therapeutics (Shanghai) Inc., priority 2021, published 2025)
Like-named read-outs stand apart in the source and are kept apart here.

Legend:
Format in all cases: cell-based, human
[1] = tested on: AsPC-1 cells (KRAS G12D mutation); assay: Cell proliferation inhibition assay, 3D, CellTiter-Glo 3D, AsPC-1; conditions: AsPC-1 3D sphere model, 5 days incubation
Method in brief: (§1)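 Spheroids (800 AsPC-1 or 400 AGS cells/well; RPMI-1640 or F-12K with 10% FBS) formed overnight, then were dosed on day 2 with a 3.16-fold series at 0.1% DMSO. After 5 days, viability was read by CellTiter-Glo 3D luminescence, and IC50 came from four-parameter fits of inhibition versus DMSO control and medium blank.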

[2] = tested on: p-ERK in AGS cells (KRAS G12D mutation); assay: Cell p-ERK assay (HTRF, Advance ERK phospho-T202/Y204 kit); conditions: AGS cells, 3 hours incubation with compound, HTRF, read-out: AGS p-ERK IC50
Method in brief: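 Phospho-ERK (T202/Y204) measured by HTRF in lysates of human gastric AGS cells carrying KRAS G12D, after 3 h compound exposure at 0.1% DMSO over a 3.16-fold series. Percent inhibition relative to DMSO control and lysis-only blank; four-parameter curve fitting gave IC50.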

AGS cells (KRAS G12D) = assay: Cell proliferation inhibition assay, 3D, CellTiter-Glo 3D, AGS; conditions: AGS 3D sphere model, 5 days incubation
Method in brief: as §1

Work on `C#Cc1cccc2cccc(-c3nc4c5c(nc(OCC67CCCN6CC(=C)C7)nc5c3F)N3C[C@H]5CC[C@H](N5)[C@H]3[C@H](CC)O4)c12` (stereo partly drawn) [Example Z595, (5S,5aS,6S,9R)-5-ethyl-2-(8-ethynylnaphthalen-1-yl)-1-fluoro-12-((2-methylenetetrahydro-1H-pyrrolizin-7a (5H)-yl)methoxy)-5a,6,7,8,9,10-hexahydro-5H-4-oxa-3,10a,11,13,14-pentaaza-6,9-methanonaphtho[1,8-ab]heptalene] yielded an IC50 ([1]; Homo sapiens, ASPC1, 120 h) of 157 nM, an IC50 ([2]; Homo sapiens) of 119 nM and an IC50 (AGS cells (KRAS G12D); Homo sapiens, 120 h) of 99 nM.

With `C#Cc1c(F)ccc2cccc(-c3nc4c5c(nc(OCC67CC(=C)CN6C[C@@H](OC)C7)nc5c3F)N3C[C@H]5CC[C@H](N5)[C@H]3[C@H](C)O4)c12` (stereo partly drawn) [Example Z692, (5S,5aS,6S,9R)-2-(8-ethynyl-7-fluoronaphthalen-1-yl)-1-fluoro-12-(((2S)-2-methoxy-6-methylenetetrahydro-1H-pyrrolizin-7a (5H)-yl)methoxy)-5-methyl-5a,6,7,8,9,10-hexahydro-5H-4-oxa-3,10a,11,13,14-pentaaza-6,9-methanonaphtho[1,8-ab]heptalene] the IC50 ([1]; Homo sapiens, ASPC1, 120 h) was 290 nM, the IC50 ([2]; Homo sapiens) was 188 nM and the IC50 (AGS cells (KRAS G12D); Homo sapiens, 120 h) was 378 nM.

With `C#Cc1cccc2cc(N)cc(-c3nc4c5c(nc(OCC6(CO)CC6)nc5c3F)N3C[C@H]5CC[C@H](N5)[C@H]3[C@H](C)O4)c12` [Example Z701, (1-((((5S,5aS,6S,9R)-2-(3-amino-8-ethynylnaphthalen-1-yl)-1-fluoro-5-methyl-5a,6,7,8,9,10-hexahydro-5H-4-oxa-3,10a, 11,13,14-pentaaza-6,9-methanonaphtho[1,8-ab]heptalen-12-yl)oxy)methyl)cyclopropyl)methanol] the IC50 ([1]; Homo sapiens, ASPC1, 120 h) was 245 nM, the IC50 ([2]; Homo sapiens) was 39.5 nM and the IC50 (AGS cells (KRAS G12D); Homo sapiens, 120 h) was 230 nM.

`C#Cc1c(F)ccc2cc(O)cc(-c3nc4c5c(nc(OCC67CC(=C)CN6CC(=C)C7)nc5c3F)N3C[C@H]5CC[C@H](N5)[C@H]3CO4)c12` [Example Z380, 4-((5aS,6S,9R)-12-((2,6-Dimethylenetetrahydro-1H-Pyrrolizin-7a (5H)-Yl)Methoxy)-1-Fluoro-5a,6,7,8,9,10-Hexahydro-5H-4-Oxa-3,10a,11,13,14-Pentaaza-6,9-Methanonaphtho[1,8-Ab]Heptalen-2-Yl)-5-Ethynyl-6-Fluoronaphthalen-2-Ol] gave an IC50 ([1]; Homo sapiens, ASPC1, 120 h) of 26.2 nM, an IC50 ([2]; Homo sapiens) of 0.78 nM and an IC50 (AGS cells (KRAS G12D); Homo sapiens, 120 h) of 2.68 nM.

`C#Cc1c(F)ccc2cccc(-c3nc4c5c(nc(OC[C@]67CC(=C)CN6CC[C@@H]7OC)nc5c3F)N3C[C@H]5CC[C@H](N5)[C@H]3[C@H](C)O4)c12` (single isomer, unassigned) [Example Z695] was tested, and the IC50 [1] was 77.7 nM, the IC50 [2] was 4.71 nM and the IC50 (AGS cells (KRAS G12D)) was 36.1 nM.

`C#Cc1cccc2cccc(-c3nc4c5c(nc(OC[C@@]67CCCN6CCC7=C)nc5c3F)N3C[C@H]5CC[C@H](N5)[C@H]3[C@H](C)O4)c12` [Example Z702, (5S,5aS,6S,9R)-2-(8-ethynylnaphthalen-1-yl)-1-fluoro-5-methyl-12-(((S)-1-methylenetetrahydro-1H-pyrrolizin-7a (5H)-yl)methoxy)-5a,6,7,8,9,10-hexahydro-5H-4-oxa-3,10a, 11,13,14-pentaaza-6,9-methanonaphtho[1,8-ab]heptalene] gave an IC50 ([1]; Homo sapiens, ASPC1, 120 h) of 51.9 nM, an IC50 ([2]; Homo sapiens) of 11.1 nM and an IC50 (AGS cells (KRAS G12D); Homo sapiens, 120 h) of 26.8 nM.

`C#Cc1c(F)ccc2cccc(-c3nc4c5c(nc(OCC67CC(=C)CN6CCC7CO)nc5c3F)N3C[C@H]5CC[C@H](N5)[C@H]3[C@H](C)O4)c12` (stereo partly drawn) [Example Z683, (7a-((((5S,5aS,6S,9R)-2-(8-ethynyl-7-fluoronaphthalen-1-yl)-1-fluoro-5-methyl-5a,6,7,8,9,10-hexahydro-5H-4-oxa-3,10a,11,13,14-pentaaza-6,9-methanonaphtho[1,8-ab]heptalen-12-yl)oxy)methyl)-6-methylenehexahydro-1H-pyrrolizin-1-yl)methanol] showed an IC50 ([1]; Homo sapiens, ASPC1, 120 h) of 79 nM, an IC50 ([2]; Homo sapiens) of 5.84 nM and an IC50 (AGS cells (KRAS G12D); Homo sapiens, 120 h) of 22.7 nM.

For `C#Cc1cccc2cncc(-c3nc4c5c(nc(OCC67CC(=C)CN6C[C@H](F)C7)nc5c3F)N3C[C@H]5CC[C@H](N5)[C@H]3[C@H](C)O4)c12` (stereo partly drawn) [Example Z684, (5S,5aS,6S,9R)-2-(5-ethynylisoquinolin-4-yl)-1-fluoro-12-(((2R)-2-fluoro-6-methylenetetrahydro-1H-pyrrolizin-7a (5H)-yl)methoxy)-5-methyl-5a,6,7,8,9,10-hexahydro-5H-4-oxa-3,10a, 11,13,14-pentaaza-6,9-methanonaphtho[1,8-ab]heptalene], the IC50 ([1]; Homo sapiens, ASPC1, 120 h) was 326 nM, the IC50 ([2]; Homo sapiens) was 57.5 nM and the IC50 (AGS cells (KRAS G12D); Homo sapiens, 120 h) was 341 nM.

For `CCc1cccc2c(F)c(N)cc(-c3nc4c5c(nc(OCC67CCCN6CC(F)(F)C7)nc5c3F)N3C[C@H]5CC[C@H](N5)[C@H]3[C@H](C)O4)c12` (stereo partly drawn) [Example Z729, 4-((5S,5aS,6S,9R)-12-((2,2-difluorotetrahydro-1H-pyrrolizin-7a (5H)-yl)methoxy)-1-fluoro-5-methyl-5a,6,7,8,9,10-hexahydro-5H-4-oxa-3,10a, 11, 13, 14-pentaaza-6,9-methanonaphtho[1,8-ab]heptalene-2-yl)-5-ethyl-1-fluoronaphthalen-2-amine], the IC50 ([1]; Homo sapiens, ASPC1, 120 h) was 757 nM, the IC50 ([2]; Homo sapiens) was 212 nM and the IC50 (AGS cells (KRAS G12D); Homo sapiens, 120 h) was 584 nM.

Compound `C#Cc1c(F)ccc2cccc(-c3nc4c5c(nc(OC[C@@]67C[C@@H](F)CN6CCC7=C)nc5c3F)N3C[C@H]5CC[C@H](N5)[C@H]3[C@H](C)O4)c12` (single isomer, unassigned) [Example Z690] has an IC50 ([1]; Homo sapiens, ASPC1, 120 h) of 45.9 nM, an IC50 ([2]; Homo sapiens) of 16.7 nM and an IC50 (AGS cells (KRAS G12D); Homo sapiens, 120 h) of 31.5 nM.

With `C#Cc1c(F)ccc2cccc(-c3nc4c5c(nc(OC[C@@]67CCCN6C[C@H](F)C7)nc5c3F)N3C[C@H]5CC[C@H](N5)[C@H]3[C@H](C)O4)c12` [Example Z632, (5S,5aS,6S,9R)-2-(8-Ethynyl-7-Fluoronaphthalen-1-Yl)-1-Fluoro-12-(((2R,7aS)-2-Fluorotetrahydro-1H-Pyrrolizin-7a (5H)-Yl)Methoxy)-5-Methyl-5a,6,7,8,9,10-Hexahydro-5H-4-Oxa-3,10a,11,13,14-Pentaaza-6,9-Methanonaphtho[1,8-Ab]Heptalene] the IC50 ([1]; Homo sapiens, ASPC1, 120 h) was 53.8 nM, the IC50 ([2]; Homo sapiens) was 30.4 nM and the IC50 (AGS cells (KRAS G12D); Homo sapiens, 120 h) was 26.2 nM.

In the case of `C#Cc1cccc2cc(N)cc(-c3nc4c5c(nc(OC[C@@H]6CC(F)(F)CN6C)nc5c3F)N3C[C@H]5CC[C@H](N5)[C@H]3[C@H](C)O4)c12` [Example Z724, 4-((5S,5aS,6S,9R)-12-(((S)-4,4-Difluoro-1-Methylpyrrolidin-2-Yl)Methoxy)-1-Fluoro-5-Methyl-5a,6,7,8,9,10-Hexahydro-5H-4-Oxa-3,10a,11,13,14-Pentaaza-6,9-Methanonaphtho[1,8-Ab]Heptalene-2-Yl)-5-Ethynylnaphthalen-2-Amine], the IC50 ([1]; Homo sapiens, ASPC1, 120 h) is reported as 196 nM, the IC50 ([2]; Homo sapiens) is reported as 45.3 nM and the IC50 (AGS cells (KRAS G12D); Homo sapiens, 120 h) is reported as 92 nM.

In the case of `C#Cc1c(F)ccc2cc(O)cc(-c3nc4c5c(nc(OCC67CC(=C)CN6CC(=C)C7)nc5c3F)N3C[C@H]5CC[C@H](N5)[C@H]3[C@H](C)O4)c12` [Example Z553, 4-((5S,5aS,6S,9R)-12-((2,6-dimethylenetetrahydro-1H-pyrrolizin-7a (5H)-yl)methoxy)-1-fluoro-5-methyl-5a,6,7,8,9,10-hexahydro-5H-4-oxa-3,10a, 11,13,14-pentaaza-6,9-methanonaphtho[1,8-ab]heptalen-2-yl)-5-ethynyl-6-fluoronaphthalen-2-ol], the IC50 ([1]; Homo sapiens, ASPC1, 120 h) is reported as 9.13 nM, the IC50 ([2]; Homo sapiens) is reported as 0.48 nM and the IC50 (AGS cells (KRAS G12D); Homo sapiens, 120 h) is reported as 0.53 nM.
